The RepoRT retention time repository (doi:10.1039/c6ra10883k)

assay: Phenomenex Kinetex XB-C18, 100 × 2.1 mm, 1.7 µm, 35 °C, 0.3 mL/min, estimated dead time 0.73 min; A: water + 0.1% formic acid; B: acetonitrile + 0.1% formic acid; gradient (min/%B) 0/5 1/5 2/10 9/33 15/46 16/70 21/90 22/90; conditions: stereoisomer not certain

SMILES	LC retention time [min]
CC(C)=CCCC(C)(OC1OC(COC2OC(CO)C(O)C(OC3OCC(O)C(O)C3O)C2O)C(O)C(O)C1O)C1CCC2(C)C1C(O)CC1C3(C)CCC(OC4OC(CO)C(O)C(O)C4OC4OC(CO)C(O)C(O)C4O)C(C)(C)C3CCC12C (configuration not stated)	10.5
O=c1cc(-c2ccc(O)c(O)c2)oc2cc(O)cc(O)c12	8.91
O=C(C=Cc1ccc(O)cc1)C1=C(O)C2=C(OC(C(O)C(O)C(O)CO)C2C2=C(O)C(=C(O)C=Cc3ccc(O)cc3)C(=O)C(O)(C3OC(CO)C(O)C(O)C3O)C2=O)C(O)(C2OC(CO)C(O)C(O)C2O)C1=O (configuration not stated)	6.67
O=C(O)CC(C1=C(O)C(=C(O)C=Cc2ccc(O)cc2)C(=O)C(O)(C2OC(CO)C(O)C(O)C2O)C1=O)c1ccc(O)cc1 (configuration not stated)	7.95
CC(C)=CCCC(C)(OC1OC(CO)C(O)C(O)C1O)C1CCC2(C)C1C(O)CC1C3(C)CCC(O)C(C)(C)C3C(OC3OC(CO)C(O)C(O)C3O)CC12C (configuration not stated)	8.07
CC(C)=CCCC(C)(OC1OC(COC2OC(CO)C(O)C2O)C(O)C(O)C1O)C1CCC2(C)C1C(O)CC1C3(C)CCC(OC4OC(CO)C(O)C(O)C4OC4OC(CO)C(O)C(O)C4O)C(C)(C)C3CCC12C (configuration not stated)	11.2
CC(C)=CCCC(C)(OC1OC(CO)C(O)C(O)C1O)C1CCC2(C)C1C(O)CC1C3(C)CCC(OC4OC(CO)C(O)C(O)C4OC4OC(COC(=O)CC(=O)O)C(O)C(O)C4O)C(C)(C)C3CCC12C (configuration not stated)	12.7
CCCC=C1OC(=O)C2=C1CCC=C2	16.4
O=C(C=Cc1ccc(O)c(O)c1)OC1CC(O)(C(=O)O)CC(OC(=O)C=Cc2ccc(O)c(O)c2)C1O (configuration not stated)	6.92
CC(C)=CCCC(C)(OC1OC(CO)C(O)C(O)C1O)C1CCC2(C)C1C(O)CC1C3(C)CCC(OC4OC(COC5OC(CO)C(O)C(O)C5O)C(O)C(O)C4O)C(C)(C)C3CCC12C (configuration not stated)	13.2
CC(C)=CCCC(C)(OC1OC(COC2OCC(O)C(O)C2O)C(O)C(O)C1O)C1CCC2(C)C1C(O)CC1C3(C)CCC(OC4OC(CO)C(O)C(O)C4OC4OC(CO)C(O)C(O)C4O)C(C)(C)C3CCC12C (configuration not stated)	11.6
CCCC=C1OC(=O)C2=C1CCC1C3C=C4C(=O)OC(=CCCC)C4(CC3)C21 (configuration not stated)	18.2
CC(C)=CCCC(C)(O)C1CCC2(C)C1C(O)CC1C3(C)CCC(O)C(C)(C)C3C(O)CC12C (configuration not stated)	16.6
CC(C)=CCCC(C)(OC1OC(CO)C(O)C(O)C1O)C1CCC2(C)C1C(O)CC1C3(C)CCC(O)C(C)(C)C3C(OC3OC(COC4OC(CO)C(O)C(O)C4O)C(O)C(O)C3O)CC12C (configuration not stated)	7.28
CC1OC(OCC2OC(Oc3c(-c4ccc(O)cc4)oc4cc(O)cc(O)c4c3=O)C(O)C(O)C2O)C(O)C(O)C1O (configuration not stated)	6.6
O=c1c(O)c(-c2ccc(O)c(O)c2)oc2cc(OC3OC(CO)C(O)C(O)C3O)cc(O)c12 (configuration not stated)	6.12
CC(C)=CCCC(C)(OC1OC(CO)C(O)C(O)C1O)C1CC(C)C2(C)C3CC(OC4OC(CO)C(O)C(O)C4OC4OC(CO)C(O)C(O)C4O)C4C(C)(C)C(O)CCC4(C)C3CC(O)C12 (configuration not stated)	7.5
CC(C)=CCCC(C)(OC1OC(CO)C(O)C(O)C1O)C1CCC2(C)C1C(O)CC1C3(C)CCC(OC4OC(CO)C(O)C(O)C4OC4OC(CO)C(O)C(O)C4O)C(C)(C)C3C(O)CC12C (configuration not stated)	9.5
CC1(C)CCC2(C(=O)OC3OC(CO)C(O)C(O)C3O)CCC3(C)C(=CCC4C5(C)CCC(OC6OC(C(=O)O)C(O)C(O)C6OC6OC(CO)C(O)C(O)C6O)C(C)(C)C5CCC43C)C2C1 (configuration not stated)	11.3
O=c1c(O)c(-c2ccc(O)c(O)c2)oc2cc(O)cc(O)c12	8.93
COc1cc(C=CC(=O)O)ccc1O	5.97

SMILES	LC retention time [min]
COc1cc(C=CCO)cc(OC)c1OC1OC(CO)C(O)C(O)C1O (configuration not stated)	3.9
CC(C)=CCCC(C)(OC1OC(CO)C(O)C(O)C1O)C1CCC2(C)C1C(O)CC1C3(C)CCC(OC4OC(CO)C(O)C(O)C4OC4OC(CO)C(O)C(O)C4O)C(C)(C)C3=CC(O)C12C (configuration not stated)	8.82
CC(C)=CCCC(C)(OC1OC(COC2OC(COC3OCC(O)C(O)C3O)C(O)C(O)C2O)C(O)C(O)C1O)C1CCC2(C)C1C(O)CC1C3(C)CCC(OC4OC(CO)C(O)C(O)C4OC4OC(CO)C(O)C(O)C4O)C(C)(C)C3CCC12C (configuration not stated)	10.2
CC(C)=CCCC(C)(OC1OC(COC2OC(CO)C(O)C(O)C2O)C(O)C(O)C1O)C1CCC2(C)C1C(O)CC1C3(C)CCC(OC4OC(CO)C(O)C(O)C4OC4OC(COC(=O)CC(=O)O)C(O)C(O)C4O)C(C)(C)C3CCC12C (configuration not stated)	11.1
CC(C)=CCCC(C)(OC1OC(CO)C(O)C(O)C1O)C1CCC2(C)C1C(O)CC1C3(C)CCC(OC4OC(CO)C(O)C(O)C4OC4OC(CO)C(O)C(O)C4O)C(C)(C)C3CCC12C (configuration not stated)	12.4
CC1OC(OCC2OC(Oc3c(-c4ccc(O)c(O)c4)oc4cc(O)cc(O)c4c3=O)C(O)C(O)C2O)C(O)C(O)C1O (configuration not stated)	5.99
CC(C)=CCCC(C)(OC1OC(COC2OC(CO)C(O)C(O)C2O)C(O)C(O)C1O)C1CCC2(C)C1C(O)CC1C3(C)CCC(OC4OC(CO)C(O)C(O)C4OC4OC(CO)C(O)C(O)C4O)C(C)(C)C3CCC12C (configuration not stated)	10.9
O=c1c(OC2OC(CO)C(O)C(O)C2O)c(-c2ccc(O)cc2)oc2cc(O)cc(O)c12 (configuration not stated)	6.86
CC(C)=CCCC(C)(OC1OC(CO)C(O)C(O)C1O)C1CCC2(C)C1C(O)CC1C3(C)CCC(O)C(C)(C)C3C(OC3OC(CO)C(O)C(O)C3OC3OCC(O)C(O)C3O)CC12C (configuration not stated)	7.68
CC(C)=CCCC(C)(OC1OC(COC2OC(CO)C(O)C(OC3OCC(O)C(O)C3O)C2O)C(O)C(O)C1O)C1CCC2(C)C1C(O)CC1C3(C)CCC(OC4OC(CO)C(O)C(O)C4OC4OC(CO)C(O)C(O)C4OC4OCC(O)C(O)C4O)C(C)(C)C3CCC12C (configuration not stated)	9.85
O=C(C=Cc1ccc(O)cc1)C1=C(O)C2=C(OC3(C2)OCC(O)C(O)C3O)C(O)(C2OC(CO)C(O)C(O)C2O)C1=O (configuration not stated)	6.76
CC(C)=CCCC(C)(O)C1CCC2(C)C1C(O)CC1C3(C)CCC(O)C(C)(C)C3C(OC3OC(CO)C(O)C(O)C3OC3OC(C)C(O)C(O)C3O)CC12C (configuration not stated)	10.9
C=C(CCC=C(C)C)C1CCC2(C)C1C(O)CC1C3(C)CCC(O)C(C)(C)C3C(OC3OC(CO)C(O)C(O)C3O)CC12C (configuration not stated)	14.9
CC(C)=CCCC(C)(OC1OC(CO)C(O)C(O)C1O)C1CCC2(C)C1C(O)CC1C3(C)CCC(OC4OC(CO)C(O)C(O)C4O)C(C)(C)C3CCC12C (configuration not stated)	15.4
O=c1cc(-c2ccc(O)c(O)c2)oc2cc(OC3OC(CO)C(O)C(O)C3O)cc(O)c12 (configuration not stated)	6.28
CC(C)=CCCC(C)(OC1OC(CO)C(O)C(O)C1O)C1CCC2(C)C1C(O)CC1C3(C)CCC(O)C(C)(C)C3CCC12C (configuration not stated)	17.3
CC(C)=CCCC(C)(O)C1CCC2(C)C1C(O)CC1C3(C)CCC(O)C(C)(C)C3C(OC3OC(CO)C(O)C(O)C3OC3OC(CO)C(O)C(O)C3O)CC12C (configuration not stated)	10.1
C=C(CCC=C(C)C)C1CCC2(C)C1C(O)CC1C3(C)CCC(O)C(C)(C)C3C(OC3OC(CO)C(O)C(O)C3OC3OCC(O)C(O)C3O)CC12C (configuration not stated)	14
O=c1c(O)c(-c2ccc(O)cc2)oc2cc(O)cc(O)c12	10.3
CC(C)=CCCC(C)(OC1OC(COC2OC(CO)C(O)C(O)C2O)C(O)C(O)C1O)C1CCC2(C)C1C(O)CC1C3(C)CCC(O)C(C)(C)C3C(OC3OC(CO)C(O)C(O)C3O)CC12C (configuration not stated)	7.09
O=C1C(=C(O)C=Cc2ccc(O)cc2)C(O)=C(C2OC(CO)C(O)C(O)C2O)C(=O)C1(O)C1OC(CO)C(O)C(O)C1O (configuration not stated)	4.17
